Measured values published in patent US6642392B1 (priority 1997, dated 2003).
Like-named read-outs stand apart in the source and are kept apart here.

Experiments:
Format in all cases: in vivo
[1] = system: Eiysiphe graminis f. sp. tritici; experiment: Test A: wheat powdery mildew, preventive spray on wheat seedlings; conditions: for Test A disease control rating: wheat powdery mildew; for Test A disease control rating (100 = 100% disease control, 0 = no disease control): wheat seedlings sprayed to run-off, inoculated the following day, rating relative to controls, unmarked compounds (standard test rate)
Procedure, shortened: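 Preventive test: seedlings inoculated with powdery mildew spores one day after run-off spraying of a suspension. Ratings after 7 days in a 20° C growth chamber express percent disease control versus controls.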

Puccinia recondita = experiment: Test B: wheat leaf rust, preventive spray on wheat seedlings; conditions: for Test B disease control rating: wheat leaf rust; for Test B disease control rating (100 = 100% disease control, 0 = no disease control): wheat seedlings sprayed to run-off, inoculated the following day, rating relative to controls, unmarked compounds (standard test rate)
Procedure, shortened: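 Preventive test: P. recondita spores were applied one day after a run-off spray of compound suspension on wheat seedlings. Plants had 24 h at 20 °C in saturated air plus 6 days in a 20 °C growth chamber. Scoring is % disease control (100 = full) relative to controls.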

Pyricularia oryzae = conditions: for Test C disease control rating: rice blast; for Test C disease control rating (100 = 100% disease control, 0 = no disease control): rice seedlings sprayed to run-off, inoculated the following day, rating relative to controls, unmarked compounds (standard test rate)
Phytophthora infestans = conditions: for Test D disease control rating: tomato late blight; for Test D disease control rating (100 = 100% disease control, 0 = no disease control): tomato seedlings sprayed to run-off, inoculated the following day, rating relative to controls, unmarked compounds (standard test rate)
Botrytis cinerea = experiment: Test E: gray mold, preventive spray on cucumber seedlings; conditions: for Test E disease control rating: gray mold on cucumber; for Test E disease control rating (100 = 100% disease control, 0 = no disease control): cucumber seedlings sprayed to run-off, inoculated the following day, rating relative to controls, unmarked compounds (standard test rate)
Procedure, shortened: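 Preventive spray on cucumber seedlings used a suspension (3% acetone, 250 ppm Trem 014), applied to run-off one day before inoculation with Botrytis cinerea spores. Plants were held 48 h at 20° C in saturated air, then 5 days at 20° C. Percent disease control was scored relative to untreated plants.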

[2] = 100 = 100% disease control, 0 = no control relative to controls, unmarked entries (standard test concentration)
[3] = 100 = 100% disease control, 0 = no control, unmarked entries (standard test concentration)

| SMILES | Test A disease control rating [1, 2] [%] | Test B disease control rating (Puccinia recondita; [3]) [%] | Test C disease control rating (Pyricularia oryzae; [3]) [%] | Test D disease control rating (Phytophthora infestans; [3]) [%] | Test E disease control rating (Botrytis cinerea; [3]) [%] | other results |
| --- | --- | --- | --- | --- | --- | --- |
| Cc1c(Br)cc(C#N)n1OCC(C)NC(=O)C(C#N)C(C)(C)C (mixture of isomers) [compound 50] | 86 | 28 | 53 | 57 | 0 | – |
| CCC1(C(=O)NCCCn2cccc2Cl)C(C)C1(Cl)Cl (stereo not drawn) [compound 146] | 0 | 22 | 0 | 0 | 0 | – |
| CCC1(C(=O)NC(C)COc2ccccc2Cl)C(C)C1(Cl)Cl (mixture of isomers) [81a] | 0 | 0 | 0 | 0 | 55 | – |
| C=C(F)C(C)(C)C(C#N)C(=O)NC(C)COc1cc(F)ccc1Cl (mixture of isomers) [compound 223] | – | – | – | – | – | Test A disease control rating (100 = 100% disease control, 0 = no disease control) [1]: 62%; Test B disease control rating (100 = 100% disease control, 0 = no disease control) (Puccinia recondita): 28%; Test C disease control rating (100 = 100% disease control, 0 = no disease control) (Pyricularia oryzae): 100%; Test D disease control rating (100 = 100% disease control, 0 = no disease control) (Phytophthora infestans): 41%; Test E disease control rating (100 = 100% disease control, 0 = no disease control) (Botrytis cinerea): 0% |
| Cc1ccc(Cl)c(OC[C@@H](C)NC(=O)C(C#N)C(C)(C)C)c1 (single isomer, unassigned) [15a] | 0 | 28 | 97 | 92 | 86 | – |
| C[C@H](COc1cccc(I)c1)NC(=O)C(C#N)C(C)(C)C (single isomer, unassigned) [12a] | 86 | 68 | 91 | 0 | 0 | – |
| CCC1(C(=O)NC(C)COc2cc(F)cc(F)c2C#N)C(C)C1(Cl)Cl (mixture of isomers) [compound 135] | 0 | 0 | 53 | 2 | 0 | – |
| CC(COc1ccccc1Cl)NC(=O)C(C#N)C(C)(C)C (mixture of isomers) [5a] | 0 | 68 | 0 | 0 | 0 | – |
| C[C@H](COc1cc(F)cc(F)c1F)NC(=O)C(C#N)C(C)(C)C (single isomer, unassigned) [168b] | 95 | 0 | 94 | 45 | 86 | – |
| CC(CCn1cc(Cl)cc1C#N)NC(=O)C(C#N)C(C)C(C)(C)C (mixture of isomers) [compound 74] | 0 | 86 | 53 | 23 | 0 | – |
| CC(COn1c(C#N)cc(Cl)c1Cl)NC(=O)C(C#N)C(C)(C)C (mixture of isomers) [compound 51] | 71 | 0 | 53 | 68 | 0 | – |
| CC(C)(C)C(C#N)C(=O)NC/C=C/c1ccccc1F (racemic) [compound 178] | 0 | 0 | 53 | 0 | 58 | – |
| CCC1(C(=O)NC(C)COc2ccc(Cl)c(F)c2)C(C)C1(Cl)Cl (stereo not drawn) [compound 231] | – | – | – | – | – | Test A disease control rating (100 = 100% disease control, 0 = no disease control) [1]: 0%; Test B disease control rating (100 = 100% disease control, 0 = no disease control) (Puccinia recondita): 0%; Test C disease control rating (100 = 100% disease control, 0 = no disease control) (Pyricularia oryzae): 97%; Test D disease control rating (100 = 100% disease control, 0 = no disease control) (Phytophthora infestans): 0%; Test E disease control rating (100 = 100% disease control, 0 = no disease control) (Botrytis cinerea): 93% |
| C[C@H](COc1ccc(F)cc1F)NC(=O)C(C#N)C(C)(C)C (single isomer, unassigned) [27b] | 91 | 0 | 100 | 0 | 0 | – |
| C[C@H](COc1cc(F)c(F)cc1F)NC(=O)C(C#N)C(C)(C)C (single isomer, unassigned) [188a] | 0 | 0 | 97 | 56 | 0 | – |
| CCC1(C(=O)NC(C)COc2ccccc2SC(F)(F)C(F)F)C(C)C1(Cl)Cl (mixture of isomers) [compound 91] | 74 | 0 | 53 | 0 | 0 | – |
| CCC1(C(=O)NC(C)COc2cc(Cl)cc(Cl)c2)C(C)C1(Cl)Cl (stereo not drawn) [compound 115] | – | – | – | – | – | Test A disease control rating ([1]; tested at 40 ppm): 52%; Test B disease control rating (Puccinia recondita; tested at 40 ppm): 0%; Test C disease control rating (Pyricularia oryzae; tested at 40 ppm): 32%; Test D disease control rating (Phytophthora infestans; tested at 40 ppm): 0%; Test E disease control rating (Botrytis cinerea; tested at 40 ppm): 0% |
| C[C@H](COc1ccccc1)NC(=O)C(C#N)C(C)(C)C (single isomer, unassigned) [1d] | 92 | 0 | 100 | 0 | 0 | – |
| CCC1(C(=O)NC(C)COn2c(C)cc(C)c2C#N)C(C)C1(Cl)Cl (mixture of isomers) [compound 136] | 34 | 0 | 78 | 0 | 0 | – |
| CC(COc1cc(F)cc(F)c1C#N)NC(=O)C(C#N)C(C)C(C)(C)C (mixture of isomers) [compound 69] | 0 | 0 | 53 | 2 | 0 | – |
| C[C@H](COc1cccc(Br)c1)NC(=O)C(C#N)C(C)(C)C (single isomer, unassigned) [9c] | 62 | 28 | 100 | 51 | 0 | – |
| CCC1(C(=O)NCC=Cc2ccccc2)C(C)C1(Cl)Cl (stereo not drawn) [compound 156] | – | – | – | – | – | Test A disease control rating ([1]; tested at 40 ppm): 0%; Test B disease control rating (Puccinia recondita; tested at 40 ppm): 0%; Test C disease control rating (Pyricularia oryzae; tested at 40 ppm): 0%; Test D disease control rating (Phytophthora infestans; tested at 40 ppm): 0%; Test E disease control rating (Botrytis cinerea; tested at 40 ppm): 0% |
| CCC1(C(=O)NC(C)COc2cc(Br)ccc2C#N)C(C)C1(Cl)Cl (stereo not drawn) [compound 246] | – | – | – | – | – | Test A disease control rating (100 = 100% disease control, 0 = no disease control) [1]: 53%; Test B disease control rating (100 = 100% disease control, 0 = no disease control) (Puccinia recondita): 0%; Test C disease control rating (100 = 100% disease control, 0 = no disease control) (Pyricularia oryzae): 97%; Test D disease control rating (100 = 100% disease control, 0 = no disease control) (Phytophthora infestans): 0%; Test E disease control rating (100 = 100% disease control, 0 = no disease control) (Botrytis cinerea): 0% |
| CC(COc1ccccc1Cl)NC(=O)C(C#N)C(C)(C)C (mixture of isomers) [5b] | 0 | 86 | 100 | 24 | 0 | – |
